Measurements reported in patent US20140135319A1, “6-SUBSTITUTED IMIDAZOPYRAZINES FOR USE AS MPS-1 AND TKK INHIBITORS IN THE TREATMENT OF HYPERPROLIFERATIVE DISORDERS” (BAYER INTELLECTUAL PROPERTY GMBH, priority 2010, published 2014).

target: T1, human kinase Mps-1 (Homo sapiens, UniProt P33981); experiment: Mps-1 kinase assay (TR-FRET); format: biochemical; conditions: GST-tagged human full length recombinant Mps-1; 10 μM ATP; 1 μM peptide substrate; 60 min at 22° C.
T1 construct: N-terminally GST-tagged human full length recombinant Mps-1 kinase; GST (N); purchased Invitrogen, Karslruhe, Germany PV4071
T1 sequence (P33981 1-857): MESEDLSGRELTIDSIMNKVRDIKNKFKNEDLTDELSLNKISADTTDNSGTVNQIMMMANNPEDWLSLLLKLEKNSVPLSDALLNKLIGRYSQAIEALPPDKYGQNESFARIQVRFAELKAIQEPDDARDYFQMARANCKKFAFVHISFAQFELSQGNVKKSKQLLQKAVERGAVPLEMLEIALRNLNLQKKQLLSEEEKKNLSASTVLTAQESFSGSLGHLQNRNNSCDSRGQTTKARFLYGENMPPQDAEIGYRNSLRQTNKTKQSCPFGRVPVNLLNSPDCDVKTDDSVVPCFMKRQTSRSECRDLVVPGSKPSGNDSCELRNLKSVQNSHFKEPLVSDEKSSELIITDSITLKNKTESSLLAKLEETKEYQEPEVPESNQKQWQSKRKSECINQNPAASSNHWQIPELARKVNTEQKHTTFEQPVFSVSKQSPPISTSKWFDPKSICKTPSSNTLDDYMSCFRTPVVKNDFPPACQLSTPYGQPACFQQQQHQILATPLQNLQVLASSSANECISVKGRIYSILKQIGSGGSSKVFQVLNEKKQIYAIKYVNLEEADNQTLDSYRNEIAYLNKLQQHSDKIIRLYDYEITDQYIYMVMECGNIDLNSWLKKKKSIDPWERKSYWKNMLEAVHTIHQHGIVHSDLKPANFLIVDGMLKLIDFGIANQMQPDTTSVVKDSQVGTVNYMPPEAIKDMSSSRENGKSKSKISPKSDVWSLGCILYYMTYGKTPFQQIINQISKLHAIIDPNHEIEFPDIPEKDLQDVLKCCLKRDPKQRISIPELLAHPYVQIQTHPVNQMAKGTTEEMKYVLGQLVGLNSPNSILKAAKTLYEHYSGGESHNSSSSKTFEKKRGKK
Outline: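 TR-FRET read-out: after 1 h binding at 22° C, Eu-labelled anti-phospho-Ser/Thr antibody transfers to SA-XLent on the phosphorylated biotinylated peptide. The enzyme is GST-tagged full-length human Mps-1, typically about 1 nM final, in the linear range.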

SMILES	IC50
Cc1cc(-c2cnc3c(NCCC(F)(F)F)nc(Sc4cccc(F)c4)cn23)ccc1C(=O)NC1CC1 [Example 15-3, N-cyclopropyl-4-{6-[(3-fluorophenyl)sulfanyl]-8-[(3,3,3-trifluoropropyl)amino]imidazo[1,2-a]pyrazin-3-yl}-2-methylbenzamide]	< 0.001 µM
O=C(NC1CC1)c1ccc(-c2cnc3c(NCC4CCCO4)nc(-c4ccoc4)cn23)cc1F (stereo not drawn) [Example 1-62, N-cyclopropyl-2-fluoro-4-{6-(furan-3-yl)-8-[(tetrahydrofuran-2-ylmethyl)amino]imidazo [1,2-a]pyrazin-3-yl} benzamide]	0.0183 µM
CC(C)CNc1nc(-c2cccc(CC(=O)O)c2)cn2c(-c3ccc(C(=O)NC4CC4)cc3)cnc12 [Example 1-88, (3-{3-[4-(cyclopropyl-carbamoyl)phenyl]-8-(iso-butylamino)imidazo[1,2-a]pyrazin-6-yl}phenyl)acetic acid]	0.0503 µM
